Experimental data published in paper PMC2827632 (Biochemistry, 2010).

What was measured:
Mtb Lpd R347S = Mtb Lpd R347S (Mycobacterium tuberculosis, UniProt P9WHH9, R347S)
Mtb Lpd A181V = Mtb Lpd A181V (Mycobacterium tuberculosis, UniProt P9WHH9, A181V); conditions: 100 µM

COc1ccc(C(=O)N2CCC3(CC2)C(=O)N(CC(=O)NCCc2ccc(Cl)cc2Cl)CN3c2ccccc2)c(OC)c1 [compound 5, N-(2,4-dichlorophenethyl)-2-(8-(2,4-dimethoxybenzoyl)-4-oxo-1-phenyl-1,3,8-triazaspiro[4.5]decan-3-yl)acetamide]
Decrease in potency, R347S vs wild-type (Mtb Lpd R347S): more than 100 fold
Inhibition of A181V Mtb Lpd (Mtb Lpd A181V): 10%
